Results taken from patent publication US20160262664A1, “Detection Of Disease Using Gesture Writing Bio-Markers” (priority 2015, published 2016).

Test system: PD patient
Experiment: EMG analysis during rest, postural and writing activity in the same subject before and after medication (monitoring of drug effectiveness)
Assay type: in vivo
Details: after meds
Description: Technology for detecting Parkinson's disease (PD) comprises of a group of indicators (endpoints) that are based on various Electromyography (EMG) properties of hand muscles during gesture writing as well as kinematics and pen traces. Gesture writing is the type of writing, when part of the time a pen is touching the tablet (writing activity) and part of the time a pen is not touching the tablet (postural activity). During postural period a hand is held against gravity. Postural EMG activity can be found programmatically by analyzing the writing activity, since it is known from the tablet recording when a pen was touching a tablet and not touching the tablet. In addition, EMG at rest is recorded, while both hands are lying on a table. The properties of resting EMG signals are also included in the analysis. Two differential channels of EMG are recorded from each hand. EMG recordings are synchronized with the input from the tablet PC.
In one example, 100 trials were administered. A beep sound denotes the end of one trial and beginning of the next trial. Writing activity was analyzed while a subject was writing a number “3” in cursive. The length of each trial was 5 sec. During “rest,” trials with a length of 5 sec each were generated. Postural trials were selected by a computer program. 100 trials for each type of activity were recorded. A large number of trials (around 100) is very important in the analysis, because muscle activity has high variability. A statistical ensemble is created in order for statistical analysis to be applied. A confidence interval was calculated to confirm the existence of peaks in Fast Fourier Transform (FFT).
Condition 1: Resting. The experimental session started with a recording where the participants were resting with both hands, forearms, and elbows on the table. During one continuous recording the experimenter triggered at least 25 trials of 5 seconds by touching the electronic pen on the tablet after each beep. In total 4 such files were recorded with 1-minute pauses in between, yielding 100 resting trials in total. During the pause the participants rested their hands on their knees.
Condition 2: Character-Writing and postural control of pen lift. After the resting session the participants were instructed to wait with the pen lifted while the entire forearm including elbow rested on the table. Upon hearing the beep participants were to touch the tablet with the pen and write character “3” as fast and convenient as possible and then lift the pen until the next beep. The next beep was automatically generated 4 seconds after the pen lift. As the participants were instructed to keep their forearms resting on the table the thumb muscles were optimally involved in producing character “3”. The non-writing arm rested on the table as in the resting condition. The writing segment was defined as the 5-second segment starting 2 seconds before the pen touched the writing surface till 3 seconds after that (See FIG. 3). We also defined a postural segment starting when the pen was lifted till the beep that was generated 4 seconds later. Thus each trial included a writing segment and a postural segment. The experimenter ensured that after the first trial at least 25 good trials were recorded. The experimenter ensured that at least 25 successful trials were recorded. This means that the subject had to write a complete character and only after that they lift up the pen and waited for a beep to start writing another character. All trials, including incidentally failed trials (except first and last one) were included in the analysis. After recording 25 acceptable trials, the participant was instructed to pause for 1 minute with both hands on the knees like in the resting condition. In total 4 files of 5 minutes were recorded yielding 100 trials.
Our Norconnect DH software (written in MATLAB, MathWorks, Natick, Mass., USA) processed the EMGs and handwriting kinematics to quantify 8 PD indicators (See Table 2). […]

[1] = EMG spectral peak, in 4 channels

C#CCN[C@@H]1CCc2ccccc21 [Rosageline]
Tremor, Postural [1]: No (in 4 | Tremor, Rest [1]: No (in 4 | Stiffness, spectral density maximum, Postural, ch3 (ch3 left hand): ch.3: 2 mV | Stiffness, spectral density maximum, Postural, ch4 (ch4 left hand): ch4: 1.1 (mV) | Weakness, mean intensity, Writing, ch1 (criterion <0.005 mV^2, ch1): ch1: 0.003 mV^2 | Weakness, mean intensity, Writing, ch2 (criterion <0.005 mV^2, ch2): ch2: 0.018 (mV^2) | Stiffness, spectral density maximum, Rest, ch1 (criterion >0.5 mV, ch1 right hand): ch1: 2 mV | Stiffness, spectral density maximum, Rest, ch2 (criterion >0.5 mV, ch2 right hand): ch2: 2.4 mV | Stiffness, spectral density maximum, Rest, ch3 (criterion >0.5 mV, ch3 left hand): ch3: 0.6 mV | Stiffness, spectral density maximum, Rest, ch4 (criterion >0.5 mV, ch4 left hand): ch4: 0.6 (mV) | Stiffness, spectral density maximum, Postural, ch1 (criterion >1 mV, ch1 right hand): ch1: 2 mV | Stiffness, spectral density maximum, Postural, ch2 (criterion >1 mV, ch2 right hand): ch2: 7.5 mV
